Laboratory results published in patent US20060069132A1, “Azolecarboxamide herbicides” (priority 2004, published 2006).

Legend:
[1] = test system: large crabgrass; assay: Test B pre-/postemergence herbicide test; type: in vivo, Digitaria sanguinalis; conditions: for Crabgrass, Large plant response rating: postemergence, scale 0 (no effect) to 100 (complete control)
Method in brief: (§1)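 Response was scored visually 13 to 15 days after treatment against untreated greenhouse controls, 0 meaning no effect and 100 complete control. Formulations (solvent mixture plus surfactant) went onto soil after planting, onto foliage of 1- to 4-leaf plants, and onto 2-leaf plants in a flooded paddy set including rice and barnyardgrass.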

[2] = test system: rice; assay: Test B pre-/postemergence herbicide test; type: in vivo, Oryza sativa; conditions: 0 = no effect, 100 = complete control, preemergence
Method in brief: as §1

[3] = test system: small flower umbrella sedge; assay: Test B flooded paddy test; type: in vivo, Cyperus difformis; conditions: 1000 g ai/ha, scale 0 to 100 (0 no effect, 100 complete control)
Method in brief: (§2)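 Paddy species grown to the 2-leaf stage under flooding; blackgrass sprayed postemergence at 2–18 cm (1- to 4-leaf stage). Plants kept in a greenhouse for 13 to 15 days, then visually rated against controls on 0 (no effect) to 100 (complete control).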

[4] = test system: blackgrass; assay: Test B postemergence herbicide test; type: in vivo, Alopecurus myosuroides; conditions: postemergence, visual rating, scale 0 (no effect) to 100 (complete control)
Method in brief: as §2

[5] = test system: smallflower umbrella sedge; assay: Test C flooded paddy test; type: in vivo, Cyperus difformis
[6] = test system: Surinam grass; assay: Test B pre-/postemergence herbicide test; type: in vivo, Urochloa decumbens; conditions: for Surinam Grass plant response rating: postemergence, scale 0 (no effect) to 100 (complete control)
Method in brief: as §1

[7] = test system: corn; assay: Test B pre-/postemergence herbicide test; type: in vivo, Zea mays; conditions: for Corn plant response rating: postemergence, scale 0 (no effect) to 100 (complete control)
Method in brief: as §1

[8] = test system: ducksalad; assay: Test B flooded paddy test; type: in vivo, Heteranthera limosa; conditions: 1000 g ai/ha, scale 0 to 100 (0 no effect, 100 complete control)
Method in brief: as §2

[9] = test system: ducksalad; assay: Test C flooded paddy test; type: in vivo, Heteranthera limosa
[10] = test system: wheat; assay: Test B postemergence herbicide test; type: in vivo, Triticum aestivum; set-up: key to Wheat plant response rating: 0 = no effect, 100 = complete control; conditions: postemergence, visual rating, scale 0 (no effect) to 100 (complete control)
Method in brief: (§3)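 Postemergence plants were sprayed with formulated test chemicals at 2 to 18 cm height (1- to 4-leaf stage); paddy species were grown to the 2-leaf stage. After 13 to 15 days in a greenhouse, injury was rated visually against untreated controls on a 0–100 scale (0 = no effect, 100 = complete control).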

[11] = test system: morningglory; assay: Test B pre-/postemergence herbicide test; type: in vivo, Ipomoea coccinea; conditions: for Morningglory plant response rating: postemergence, scale 0 (no effect) to 100 (complete control)
Method in brief: (§4)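 Test chemicals in a non-phytotoxic solvent mixture with surfactant were applied preemergence to seeded species and postemergence to plants 2-18 cm tall (1- to 4-leaf stage); rice and barnyardgrass were also tested in a flooded paddy at the 2-leaf stage. Visual rating versus controls after 13-15 days in greenhouse, scale 0 (no effect) to 100 (complete control).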

[12] = test system: velvetleaf; assay: Test B pre-/postemergence herbicide test; type: in vivo, Abutilon theophrasti; conditions: for Velvetleaf plant response rating: postemergence, scale 0 (no effect) to 100 (complete control)
Method in brief: as §1

[13] = test system: barnyardgrass; assay: Test C flooded paddy test; type: in vivo, Echinochloa crus-galli
Method in brief: (§5)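 Postemergence sprays applied to plants 2 to 18 cm tall (1- to 4-leaf stage); paddy species grown to 2-leaf stage under flooding. After 12 to 14 days in greenhouse, visual rating versus untreated controls on 0–100 scale (0 no effect, 100 complete control).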

[14] = test system: rice; assay: Test B flooded paddy test; type: in vivo, Oryza sativa; conditions: 1000 g ai/ha, scale 0 to 100 (0 no effect, 100 complete control)
Method in brief: as §3

[15] = test system: barnyardgrass; assay: Test B pre-/postemergence herbicide test; type: in vivo, Echinochloa crus-galli; conditions: for Barnyardgrass plant response rating: postemergence, scale 0 (no effect) to 100 (complete control)
Method in brief: as §4

[16] = test system: giant foxtail; assay: Test B pre-/postemergence herbicide test; type: in vivo, Setaria faberi; conditions: for Foxtail, Giant plant response rating: postemergence, scale 0 (no effect) to 100 (complete control)
Method in brief: as §1

[17] = test system: lambsquarters; assay: Test B pre-/postemergence herbicide test; type: in vivo, Chenopodium album; conditions: for Lambsquarters plant response rating: postemergence, scale 0 (no effect) to 100 (complete control)
Method in brief: as §1

[18] = test system: cocklebur; assay: Test B pre-/postemergence herbicide test; type: in vivo, Xanthium strumarium; conditions: for Cocklebur plant response rating: postemergence, scale 0 (no effect) to 100 (complete control)
Method in brief: as §4

[19] = test system: pigweed; assay: Test B pre-/postemergence herbicide test; type: in vivo, Amaranthus retroflexus; conditions: for Pigweed plant response rating: postemergence, scale 0 (no effect) to 100 (complete control)
Method in brief: as §1

[20] = test system: rice; assay: Test C flooded paddy test; type: in vivo, Oryza sativa
Method in brief: as §5

[21] = test system: wild oat; assay: Test B postemergence herbicide test; type: in vivo, Avena fatua; conditions: postemergence, visual rating, scale 0 (no effect) to 100 (complete control)
Method in brief: as §3

[22] = test system: barnyardgrass; assay: Test B flooded paddy test; type: in vivo, Echinochloa crus-galli; conditions: 1000 g ai/ha, scale 0 to 100 (0 no effect, 100 complete control)
Method in brief: as §2

[23] = 125 g ai/ha, 0 = no effect, 100 = complete control, preemergence
[24] = 500 g ai/ha, visual rating, 0 = no effect, 100 = complete control, preemergence
[25] = 62 g ai/ha, scale 0 to 100 (0 no effect, 100 complete control)
[26] = 125 g ai/ha, scale 0 to 100 (0 no effect, 100 complete control)
[27] = 250 g ai/ha, scale of 0 to 100, 0 is no effect, 100 is complete control
[28] = 500 g ai/ha, visual rating after 12 to 14 days, scale 0 to 100 (0 no effect, 100 complete control)

CCc1nc(C(C)(C)C)sc1C(=O)Nc1cc(C(=O)N(C)CC)ccc1F [Compound 231]
75: Plant response rating, Sedge, Umbrella [5, 28] | Barnyardgrass plant response rating [13, 27] | Rice plant response rating [20, 27]
10: Sedge, Umbrella plant response rating [5, 25] | Surinam Grass plant response rating ([6]; 125 g ai/ha, visual rating) | Corn plant response rating ([7]; 125 g ai/ha, visual rating) | Ducksalad plant response rating [9, 25] | Morningglory plant response rating (0 to 100 scale) [11, 23] | Plant response rating, Morningglory [11, 24] | Barnyardgrass plant response rating ([15]; 125 g ai/ha, visual rating) | Cocklebur plant response rating ([18]; 125 g ai/ha, visual rating)
60: Plant response rating, Surinam Grass [6, 24] | Ducksalad plant response rating [9, 26] | Foxtail, Giant plant response rating (0 to 100 scale) [16, 23] | Lambsquarters plant response rating ([17]; 125 g ai/ha, visual rating) | Pigweed plant response rating (0 to 100 scale) [19, 23]
45: Barnyardgrass plant response rating [13, 26]
100: Plant response rating, Lambsquarters [17, 24] | Plant response rating, Pigweed [19, 24]
50: Plant response rating, Rice ([2]; 500 g ai/ha, visual rating) | Plant response rating, Corn [7, 24] | Velvetleaf plant response rating ([12]; 500 g ai/ha, visual rating) | Barnyardgrass plant response rating (0 to 100 scale) [15, 23] | Pigweed plant response rating ([19]; 125 g ai/ha, visual rating)
20: Crabgrass, Large plant response rating ([1]; 125 g ai/ha, visual rating) | Crabgrass, Large plant response rating ([1]; 500 g ai/ha, visual rating) | Rice plant response rating (0 to 100 scale) ([2]; 125 g ai/ha) | Blackgrass plant response rating ([4]; 125 g ai/ha) | Surinam Grass plant response rating (0 to 100 scale) [6, 23] | Corn plant response rating ([7]; 500 g ai/ha, visual rating) | Wheat plant response rating ([10]; 125 g ai/ha) | Morningglory plant response rating ([11]; 125 g ai/ha, visual rating) | Foxtail, Giant plant response rating ([16]; 125 g ai/ha, visual rating) | Oat, Wild plant response rating ([21]; 125 g ai/ha)
0: Corn plant response rating (0 to 100 scale) [7, 23] | Cocklebur plant response rating (0 to 100 scale) [18, 23]
65: Sedge, Umbrella plant response rating [5, 27]
90: Plant response rating, Crabgrass, Large [1, 24] | Sedge, Umbrella plant response rating [3] | Ducksalad plant response rating [8] | Plant response rating, Velvetleaf [12, 24] | Plant response rating, Foxtail, Giant [16, 24]
30: Crabgrass, Large plant response rating (0 to 100 scale) [1, 23] | Blackgrass plant response rating ([4]; 500 g ai/ha) | Surinam Grass plant response rating ([6]; 500 g ai/ha, visual rating) | Velvetleaf plant response rating (0 to 100 scale) [12, 23] | Velvetleaf plant response rating ([12]; 125 g ai/ha, visual rating) | Foxtail, Giant plant response rating ([16]; 500 g ai/ha, visual rating) | Plant response rating, Cocklebur [18, 24] | Rice plant response rating [20, 25]
55: Sedge, Umbrella plant response rating [5, 26] | Rice plant response rating [20, 26]
80: Plant response rating, Ducksalad [9, 28] | Plant response rating, Barnyardgrass [13, 28] | Rice plant response rating [14] | Plant response rating, Barnyardgrass [15, 24] | Lambsquarters plant response rating (0 to 100 scale) [17, 23] | Plant response rating, Rice [20, 28] | Barnyardgrass plant response rating [22]
40: Wheat plant response rating ([10]; 500 g ai/ha) | Barnyardgrass plant response rating [13, 25] | Barnyardgrass plant response rating ([15]; 500 g ai/ha, visual rating) | Cocklebur plant response rating ([18]; 500 g ai/ha, visual rating) | Oat, Wild plant response rating ([21]; 500 g ai/ha)
70: Ducksalad plant response rating [9, 27] | Morningglory plant response rating ([11]; 500 g ai/ha, visual rating) | Lambsquarters plant response rating ([17]; 500 g ai/ha, visual rating) | Pigweed plant response rating ([19]; 500 g ai/ha, visual rating)
